From article PMC4556985, “Inhibitors of ORAI1 Prevent Cytosolic Calcium-Associated Injury of Human Pancreatic Acinar Cells and Acute Pancreatitis in 3 Mouse Models” (Gastroenterology, 2015) come the findings set out here.

SMILES strings stand for the structures.

The test has as its target T1, ORAI1 (Homo sapiens, UniProt Q96D31).
T1 construct: with STIM1 (human, co-expressed)
The test is described as follows: whole-cell patch clamp of ICRAC in HEK […] cells stably expressing hORAI1/hSTIM1. The class given is cell-based. (In patch-clamp work, channel activity is measured electrically.)

T1 sequence (Q96D31 whole entry): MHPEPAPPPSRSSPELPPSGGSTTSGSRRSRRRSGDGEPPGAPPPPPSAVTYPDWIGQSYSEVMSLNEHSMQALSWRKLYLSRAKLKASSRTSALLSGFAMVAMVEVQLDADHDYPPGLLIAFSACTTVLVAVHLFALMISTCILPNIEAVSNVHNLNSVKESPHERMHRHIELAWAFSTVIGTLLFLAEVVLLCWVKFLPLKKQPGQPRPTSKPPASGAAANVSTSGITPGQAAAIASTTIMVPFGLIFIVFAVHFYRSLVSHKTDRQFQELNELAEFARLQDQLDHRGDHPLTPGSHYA
T1 sequence (Q13586 23-685 partner): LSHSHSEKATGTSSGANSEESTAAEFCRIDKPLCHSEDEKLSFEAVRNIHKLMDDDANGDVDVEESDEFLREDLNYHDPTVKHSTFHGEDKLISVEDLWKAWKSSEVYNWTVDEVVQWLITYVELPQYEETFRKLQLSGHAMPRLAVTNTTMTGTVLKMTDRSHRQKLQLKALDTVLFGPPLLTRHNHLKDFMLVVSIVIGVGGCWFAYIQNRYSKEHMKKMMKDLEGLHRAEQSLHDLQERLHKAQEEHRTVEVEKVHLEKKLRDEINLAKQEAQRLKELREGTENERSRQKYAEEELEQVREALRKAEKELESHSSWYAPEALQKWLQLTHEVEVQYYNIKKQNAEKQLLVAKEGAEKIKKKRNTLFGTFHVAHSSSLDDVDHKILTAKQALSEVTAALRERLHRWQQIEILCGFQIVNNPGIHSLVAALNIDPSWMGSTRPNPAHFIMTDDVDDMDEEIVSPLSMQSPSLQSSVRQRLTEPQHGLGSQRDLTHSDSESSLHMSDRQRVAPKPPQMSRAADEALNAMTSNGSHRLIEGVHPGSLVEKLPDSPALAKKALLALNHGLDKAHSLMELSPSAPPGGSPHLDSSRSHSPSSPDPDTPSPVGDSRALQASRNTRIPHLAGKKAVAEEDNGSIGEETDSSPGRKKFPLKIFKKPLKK

Consider `Cc1cccc(F)c1C(=O)Nc1cnc(-c2cc3c(cc2Cl)OC(F)(F)O3)cn1` [CM_128], for which the IC50 was about 100 nM.

For orientation: IC50 means the point on the concentration scale where inhibition reaches its midpoint. Low readings indicate greater potency, high ones weaker potency.
